Laboratory results reported in patent US20230021562A1, “[…] D[…]-1 INHIBITORS” (priority 2019, published 2023).
Values joined by “and” are separate entries in the source; they are usually repeats but may differ in a detail not shown here. Equal values may be shown once. Read-outs that look alike come from different tables or passages of the source.

Legend:
[1] = target: Myeloid Cell Leukemia 1 (Mcl-1) (Homo sapiens, UniProt Q07820); assay: biochemical; format: binding; settings: HTRF Ki (nM)
[2] = tested on: MOLP-8 human multiple myeloma cell line; assay: MOLP8 Caspase-Glo 3/7 luminescent assay; format: cell-based
Description: (§1) MCL-1 is a regulator of apoptosis and is highly over-expressed in tumor cells that escape cell death. The assay evaluates the cellular potency of small-molecule compounds targeting regulators of the apoptosis pathway, primarily MCL-1, Bfl-1, Bcl-2, and other proteins of the Bcl-2 family. Protein-protein inhibitors disrupting the interaction of anti-apoptotic regulators with BH3-domain proteins initiate apoptosis.
The Caspase-Glo® 3/7 Assay is a luminescent assay that measures caspase-3 and -7 activities in purified enzyme preparations or cultures of adherent or suspension cells. The assay provides a proluminescent caspase-3/7 substrate, which contains the tetrapeptide sequence DEVD. This substrate is cleaved to release aminoluciferin, a substrate of luciferase used in the production of light. Addition of the single Caspase-Glo® 3/7 Reagent in an “add-mix-measure” format results in cell lysis, followed by caspase cleavage of the substrate and generation of a “glow-type” luminescent signal.
This assay uses the MOLP-8 human multiple myeloma cell line, which is sensitive to MCL-1 inhibition.
Cell cultures were maintained between 0.2 and 2.0×10^6 cells/mL. The cells were harvested by collection in 50 mL conical tubes. The cells were then pelleted at 500 g for 5 mins before removing supernatant and resuspension in fresh pre-warmed culture medium. The cells were counted and diluted as needed.
The assay reagent was prepared by transferring the buffer solution to the substrate vial and mixing. The solution may be stored for up to 1 week at 4° C. with negligible loss of signal.
Compounds were delivered in assay-ready plates (Proxiplate) and stored at −20° C.
Assays always include 1 reference compound plate containing reference compounds. The plates were spotted with 40 nL of compounds (0.5% DMSO final in cells; serial dilution; 30 μM highest conc. 1/3 dilution, 10 doses, duplicates). The compounds were used at room temperature and 4 μL of pre-warmed media was added to all wells except column 2 and 23. The negative control was prepared by adding 1% DMSO in media. The positive control was prepared by adding the appropriate positive control compound in final concentration of 60 μM in media. The plate was prepared by adding 4 μL negative control to column 23, 4 μL positive control to column 2 and 4 μL cell suspension to all wells in the plate. The plate with cells was then incubated at 37° C. for 2 hours. The assay signal reagent is the Caspase-Glo solution described above, and 8 μL was added to all wells. The plates were then sealed and measured after 30 minutes.
The activity of a test compound was calculated as percent change in apoptosis induction as follows: […]

MOLP8 cell line = assay: MOLP8 CellEvent Caspase-3/7 Green live-cell IncuCyte apoptosis assay; format: cell-based, human; settings: averaged values
Method: as §1
Activation of the apoptotic pathway was measured using the CellEvent™ Caspase-3/7 Green ReadyProbes™ Reagent (Thermo Fisher C10423, C10723). This assay produces a green fluorescent stain in cells that enter the apoptosis pathway. CellEvent® Caspase-3/7 Green reagent is a four amino acid peptide (DEVD) conjugated to a nucleic acid-binding dye that is non-fluorescent when not bound to DNA. The CellEvent® Caspase-3/7 Green reagent is intrinsically non-fluorescent, as the DEVD peptide inhibits binding of the dye to DNA. Upon activation of caspase-3/7 in apoptotic cells, the DEVD peptide is cleaved and the free dye can bind DNA, generating a bright green fluorescence. The activation of Caspase-3 and Caspase-7 is downstream of inhibition of MCL-1 or other apoptosis inhibiting proteins in cell lines that are dependent on them.
The live-cell readout on the IncuCyte permits tracking over time of the Caspase activation. […] The IncuCyte readout also allows one to normalize for cell number, as the suspension cells are hard to distribute evenly.
Signals were measured every 2 h for a duration of 22 h. The ratio of the Caspase mask to the Confluence mask, per image, as raw data, was calculated and the kinetic trace for every well was exported to Genedata Screener for analysis.
In Genedata Screener values for 6 h, 12 h, and 22 h from the kinetic traces were extracted. The values were normalized against negative controls (untreated cells). A standard dose-response analysis was performed on the normalized data.
The following data was reported at each of the following three aforementioned time points: (a) The dose-response curve, (b) The qAC50 and qAC50 Mode, and (c) Max Activity.
Cells were maintained in culture medium containing 10% Heat Inactivated (HI) FBS, 2 mM L-Glutamine and 50 μg/mL Gentamycin phenol red free RPMI-1640. Cells were split at 0.4 million/mL twice a week.
On Day 1, plates containing individual wells with test compounds at 10 mM concentration, 150 nL per well. The final concentrations range from […] compound (and no compound control) and compounds were thawed at room temperature for 1 hour. 25 μl of prewarmed medium was added into each well by multidrop (column 1, 3-22, 24), followed by addition of DMSO control (0.6% DMSO) in column 2. The plate was sealed using Breathe-Easy® sealing membrane and shaken for 30 min at room temperature to dissolve the test compound(s) in medium. The plate was then kept in the incubator for 1 hour at 37° C., 5% CO2.
MOLP8 cells in medium at […] (20000/50 μl final in assay) were prepared with CellEvent™ Caspase-3/7 Green Detection Reagent at 4 μM (2 μM final in assay). Once prepared, the cells were added to the test compound plate in an amount of 20000 and the plate was immediately placed in the IncuCyte and imaging started using following settings: 10× objective, 2 s exposure time in green channel, interval of 2 h, acquisition stopped after 22 h.
For analysis in IncuCyte, a Basic Analysis protocol was defined to calculate the “confluence” and “caspase” areas from the “Phase” and “green” images, respectively, as follows: (a) Confluence: Segmentation Adjustment 1, Hole Fill 0, Adjust Size −2, No filters (b) Caspase: Top-Hat segmentation, Radius 10, Threshold 0.3 GCU, Edge Split On with sensitivity 0, Hole Fill 0, Adjust Size 1, and filter on a minimum Area of 20 μm^2. The analyzer is trained on a sufficient number of positive and negative control wells, as well as compound treated wells, verifying that the “confluence” layer detects both live and dead (condensed) cells. […]

[3] = MOLP8 cells, 2 hours incubation; averaged over all runs on all batches; read-out: MOLP8 Caspase-Glo AC50
[4] = read-out: MOLP8 Caspase 3/7 AC50 at 6 h, MOLP8 cells, 6 h
[5] = read-out: MOLP8 Caspase 3/7 AC50 at 12 h, MOLP8 cells, 12 h
[6] = read-out: MOLP8 Caspase 3/7 AC50 at 22 h, MOLP8 cells, 22 h
[7] = read-out: MOLP8 Caspase-Glo AC50; MOLP8 cells, 2 hours incubation; averaged over all runs on all batches
[8] = Homo sapiens, MOLP-8, 6 h, read-out: MOLP8 Caspase 3/7 AC50 at 6 h (μM), MOLP8 cells, 6 h
[9] = Homo sapiens, MOLP-8, 12 h, read-out: MOLP8 Caspase 3/7 AC50 at 12 h (μM), MOLP8 cells, 12 h
[10] = Homo sapiens, MOLP-8, 22 h, read-out: MOLP8 Caspase 3/7 AC50 at 22 h (μM), MOLP8 cells, 22 h

Chain of Myeloid Cell Leukemia 1 (Mcl-1) (Q07820 whole entry): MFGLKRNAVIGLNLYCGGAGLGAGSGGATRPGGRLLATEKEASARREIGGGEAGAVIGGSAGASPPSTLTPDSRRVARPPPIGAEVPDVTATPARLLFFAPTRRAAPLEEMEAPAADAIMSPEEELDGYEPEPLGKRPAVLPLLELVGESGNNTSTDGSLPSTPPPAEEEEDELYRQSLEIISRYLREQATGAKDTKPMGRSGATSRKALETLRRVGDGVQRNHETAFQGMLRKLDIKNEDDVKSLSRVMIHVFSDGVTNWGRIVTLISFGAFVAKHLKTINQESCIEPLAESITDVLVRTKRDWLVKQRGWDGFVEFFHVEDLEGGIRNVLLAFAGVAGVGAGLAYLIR

Row | SMILES | Ki [1] | AC50 [2, 3] | AC50 (MOLP8 cell line; [4]) | AC50 (MOLP8 cell line; [5]) | AC50 (MOLP8 cell line; [6]) | AC50 ([2]; Homo sapiens, MOLP-8, 2 h, MOLP8 cells, 2 hours incubation; averaged over all runs on all batches; read-out: MOLP8 Caspase-Glo AC50) | AC50 [2, 7] | AC50 (MOLP8 cell line; [8]) | AC50 (MOLP8 cell line; [9]) | AC50 (MOLP8 cell line; [10])
1 | Cc1nn(CCCN2CCOCC2)c2c1-c1c(Cl)ccc3c(c(C(=O)O)n(C)c13)CCCOc1cc(cc3ccccc13)SCc1cc(nn1C)CN(C)C2 (single isomer, unassigned) [Compound 34] | 0.47 nM and 0.68 nM | 1000 nM | 2.25 µM | 2.54 µM | 2.32 µM | – | – | – | – | –
2 | Cc1nn(CCN2CCOCC2)c2c1-c1c(Cl)ccc3c(c(C(=O)O)n(C)c13)CCCOc1cc(cc3ccccc13)SCc1cc(nn1C)CN(C)C2 (single isomer, unassigned) [Compound 42] | 0.79 nM | 1260 nM | 2.96 µM | 3.18 µM | 2.98 µM | – | – | – | – | –
3 | Cc1c2c(nn1CCO)CN(C)Cc1cc(n(C)n1)CSc1cc(c3ccccc3c1)OCCCc1c(C(=O)O)n(C)c3c-2c(Cl)ccc13 (single isomer, unassigned) [Compound 37] | 0.06 nM and 0.04 nM | – | 0.71 µM | 0.62 µM | 0.56 µM | – | – | – | – | –
4 | Cc1c2c(nn1CCCN1CCOCC1)CN(C)Cc1cc(n(C)n1)CSc1cc(c3ccccc3c1)OCCCc1c(C(=O)O)n(C)c3c-2c(Cl)ccc13 (single isomer, unassigned) [Compound 36] | 1.34 nM and 2.06 nM | – | 6.14 µM | 5.77 µM | 4.29 µM | 2820 nM | – | – | – | –
5 | COCCn1nc2c(c1C)-c1c(Cl)ccc3c(c(C(=O)O)n(C)c13)CCCOc1cc(cc3ccccc13)SCc1cc(nn1C)CN(C)C2 (single isomer, unassigned) [Compound 28] | 9.8 nM and 9.39 nM | – | ~20.7 µM | 13.4 µM | 11.3 µM | – | 5400 nM | – | – | –
6 | CCn1nc2cc1CSc1cc(c3ccccc3c1)OCCCc1c(C(=O)O)n(C)c3c(c(Cl)ccc13)-c1c(nn(C)c1C)CSC2 (single isomer, unassigned) [Compound 44] | 4.06 nM | – | – | – | – | – | 3560 nM | – | – | –
7 | CCn1nc2cc1CSc1cc(c3ccccc3c1)OCCCc1c(C(=O)O)n(C)c3c(c(Cl)ccc13)-c1c(nn(C)c1C)CSC2 (single isomer, unassigned) [Compound 43] | 0.04 nM | – | – | – | – | – | 63 nM | – | – | –
8 | Cc1c2c(nn1CC1CCOCC1)CN(C)Cc1cc(n(C)n1)CSc1cc(c3ccccc3c1)OCCCc1c(C(=O)O)n(C)c3c-2c(Cl)ccc13 (single isomer, unassigned) [Compound 16] | 0.06 nM and 0.05 nM | 49 nM | 0.15 µM | 0.14 µM | 0.15 µM | – | – | – | – | –
9 | COCCOCCn1nc2c(c1C)-c1c(Cl)ccc3c(c(C(=O)O)n(C)c13)CCCOc1cc(cc3ccccc13)SCc1cc(nn1C)CN(C)C2 (single isomer, unassigned) [Compound 32] | 7.44 nM and 8.51 nM | 12100 nM | ~27.5 µM | ~21.5 µM | ~20 µM | – | – | – | – | –
10 | CCn1nc2cc1CSCc1nn(C)c(C)c1-c1c(Cl)ccc3c(c(C(=O)O)n(C)c13)CCCOc1cc(cc3ccccc13)SC2 [Compound 1] | 0.15 nM | – | – | – | – | – | – | 0.13 µM | 0.13 µM | 0.11 µM
11 | Cc1nn(CCO)c2c1-c1c(Cl)ccc3c(c(C(=O)O)n(C)c13)CCCOc1cc(cc3ccccc13)SCc1cc(nn1C)CN(C)C2 (single isomer, unassigned) [Compound 39] | 0.06 nM and 0.05 nM | – | 0.65 µM | 0.85 µM | 0.65 µM | – | – | – | – | –
12 | Cc1c2c(nn1C)CSCc1cc(nn1CCN1CCOCC1)CSc1cc(c3ccccc3c1)OCCCc1c(C(=O)O)n(C)c3c-2c(Cl)ccc13 [Compound 8] | 0.13 nM and 0.08 nM | – | – | – | – | – | – | 0.24 µM | 0.24 µM | 0.25 µM
13 | Cc1c2c(nn1C)CSCc1cc(n(CC3CCOCC3)n1)CSc1cc(c3ccccc3c1)OCCCc1c(C(=O)O)n(C)c3c-2c(Cl)ccc13 [Compound 12] | 0.05 nM and 0.08 nM | – | – | – | – | – | – | 0.18 µM | 0.18 µM | 0.13 µM
14 | Cc1c2c(nn1C)CSCc1cc(n(CCO)n1)CSc1cc(c3ccccc3c1)OCCCc1c(C(=O)O)n(C)c3c-2c(Cl)ccc13 [Compound 7] | < 0.094 nM | – | – | – | – | – | – | 0.47 µM | 0.45 µM | 0.46 µM
15 | Cc1c2c(nn1C)CSCc1cc(n(CCN(C)C)n1)CSc1cc(c3ccccc3c1)OCCCc1c(C(=O)O)n(C)c3c-2c(Cl)ccc13 [Compound 5] | 0.06 nM and 0.08 nM | – | – | – | – | – | – | 0.08 µM | 0.08 µM | 0.07 µM
16 | Cc1c2c(nn1C)CSCc1cc(nn1CCN(C)C)CSc1cc(c3ccccc3c1)OCCCc1c(C(=O)O)n(C)c3c-2c(Cl)ccc13 [Compound 4] | 0.09 nM and 0.1 nM | – | – | – | – | – | – | 0.22 µM | 0.25 µM | 0.23 µM
17 | COCCn1nc(C)c2c1CN(C)Cc1cc(n(C)n1)CSc1cc(c3ccccc3c1)OCCCc1c(C(=O)O)n(C)c3c-2c(Cl)ccc13 (single isomer, unassigned) [Compound 25] | 0.04 nM | – | 0.09 µM | 0.1 µM | 0.11 µM | – | – | – | – | –
18 | Cc1c2c(nn1C)CSCc1cc(n(CCN3CCOCC3)n1)CSc1cc(c3ccccc3c1)OCCCc1c(C(=O)O)n(C)c3c-2c(Cl)ccc13 [Compound 9] | 0.05 nM | – | – | – | – | – | – | 0.1 µM | 0.097 µM | 0.1 µM
19 | Cc1c2c(nn1CCCN1CCOCC1)CN(C)Cc1cc(n(C)n1)CSc1cc(c3ccccc3c1)OCCCc1c(C(=O)O)n(C)c3c-2c(Cl)ccc13 (single isomer, unassigned) [Compound 35] | 0.04 nM | – | 0.15 µM | 0.15 µM | 0.15 µM | – | – | – | – | –
